Results on 17 compounds are retold here after US9206125B2, “Use of compound binding to mSin3B that specifically binds to neuron restrictive silencer factor (NRSF)” (PUBLIC UNIVERSITY CORPORATION YOKOHAMA CITY UNIVERSITY, priority 2010, dated 2015).

The subject of data set [1] is DAOY (human medulloblastoma cell strain). In words: MTT assay, growth inhibition against human medulloblastoma cells (Example 3). The following applies: final concentration 200. Set-up: dose or concentration left out as unconfirmed. Format: cell-based. The protocol:
Compounds: No. 5, No. 15, No. 23, NCR 6, NCR 7, NCR 11, NCR 13, NCR 14, NCR 15
Cell: DAOY (human medulloblastoma cell strain)
(§1) Medium: DMEM (High Glucose, Nacalai Tesque)
Reagent for cell counting: MTT cell counting kit (Nacalai Tesque) *Hereinafter, referred to as MTT assay.
DAOY was plated on three 96-well plates at 5×10^3 cells/well. These three plates were for use on day 0, day 1 and day 3, respectively. As a medium, 10% FBS-containing DMEM was used.
The medium in the plate for day 0 was exchanged with 5% FBS-containing DMEM, and cells were cultured therein for 30 minutes. Then, MTT assay was carried out to measure the activity at the basal cell count.
With respect to the plates for day 1 and day 3, the medium was exchanged with 5% FBS-containing medium, and the compound was added simultaneously at this time (as a control, DMSO (the solvent) alone was added).
MTT assay was carried out using the plate for day 1.
MTT assay was carried out using the plate for day 3.
Relative growths on day 1 and day 3 were calculated, with the average of MTT activities (Ab 570 nm) […] in the rows of wells for the respective compounds being taken as 100. Each experiment was performed in quadruple.
Statistical test was performed by compound-treated cells and DMSO-treated cells.
On the technique in general: Tetrazolium assays rely on reduction of a dye to a coloured formazan, in cell work by metabolically active cells.

In data set [2] the test system is neuropathic pain model by partial sciatic nerve ligation. In words: Electrical stimulation-induced paw withdrawal (EPW) test, hypoesthesia after nerve injury. In kind it is in vivo, C57BL male mice. The settings on record: 0.5 nmol i.t. once per day from 3 days after nerve injury; observed 4 and 5 days after injury.
Data set [3] has the same test system. In words: Thermal paw withdrawal test, morphine resistance after nerve injury. The following applies: compound 0.5 nmol i.t. from 3 days after injury; morphine 30 nmol i.pl. 5 days after injury. Format: in vivo, C57BL male mice.
For data set [4], the system named is DAOY (human medulloblastoma cell strain). In words: MTT assay using a human medulloblastoma cell strain (Example 2, relative growth). Format: cell-based. The following applies: DAOY cells.
Source text: Cell growth effects were examined on 3,5-dimethylpiperidyl 3-methyl-4-nitrophenyl ketone (compound 155) and 1-[4-(difluoromethoxy)phenyl]-2-(3,5-dimethylpiperidyl)ethan-1-one (compound A28) (MTT assay using a human medulloblastoma cell strain).
Compounds: 3,5-dimethylpiperidyl 3-methyl-4-nitrophenyl ketone (compound 155) (purchased from SPECS); 1-[4-(difluoromethoxy)phenyl]-2-(3,5-dimethylpiperidyl)ethan-1-one (compound A28) (purchased from Enamine)
Cell: DAOY (human medulloblastoma cell strain) (provided by Kanno, Department of Neurosurgery, School of Medicine, Yokohama City University)
as §1
Reagent for cell counting: MTT cell counting kit (Nacalai Tesque) MTT Assay: (operations)
Day −1: DAOY was plated on three 96-well plates at 5×10^3 cells/well. These three plates were for use on day 0, day 1 and day 3, respectively. As a medium, 10% FBS-containing DMEM was used.
Day 0: MTT assay was carried out using the plate for day 0 to measure the activity at the basal cell count. With respect to the plates for day 1 and day 3, the compound was added to give a concentration of 100 μg/ml (as controls, DMEM alone and DMEM containing DMSO (solvent) were used). Specifically, the compound-containing DMEM was prepared in advance, and the compound was added to the plate through medium exchange. At this time, FBS concentration was lowered to 5% in order to prevent the masking of the compound's effect due to excessive growth signals. Day 1: MTT assay was carried out using the plate for day 1. Day 3: MTT assay was carried out using the plate for day 3. Data Analysis: Relative growths on day 1 and day 3 were calculated, with the average of MTT activities (Ab 570 nm) on day 0 in the rows of wells for addition of the respective compounds being taken, as 100.
Each experiment was performed in quadruple and each run was repeated three times. Relative values based on the values of day 0 were used to calculate data for n=12 wells and statistical tests were performed.
Test was by t-test between the cell count with DMEM alone and the cell count with the compound or DMSO.
MIT Assay: A technique for cell counting using the respiratory activity of mitochondria as an indicator. When the respiratory activity is high (the value at Ab 570 nm is high), it can be interpreted that the cell count is large.

Another data set relates to Nav 1.8. In words: Quantitative real time PCR of Nav 1.8 mRNA in dorsal root ganglia after nerve injury. In kind it is in vivo, C57BL male mice. The settings on record: 0.5 nmol i.t., single administration 3 days after nerve injury. (Quantitative PCR measures a nucleic acid by following its amplification.)
The test system of another data set is MOP. In words: Quantitative real time PCR of MOP mRNA in dorsal root ganglia after nerve injury. Format: in vivo, C57BL male mice. The settings on record: 0.5 nmol i.t., single administration 3 days after nerve injury; 3, 6 and 12 hours after administration; n=3; tendency.
The mark [5] stands for this setting: Day 0, basal cell count before compound addition.
Where [6] appears, read: Day 1, compound 100 μg/ml, 5% FBS DMEM.

Consider `Cc1cc(CN2CC(C)CC(C)C2)ccc1[N+](=O)[O-]` (stereo not drawn) [NCR 7, 3,5-Dimethyl-1-(3-Methyl-4-Nitrobenzyl)piperidine], for which the “cytotoxicity (MTT assay)” value in data set [1] is listed as “cytotoxicity was observed”.

The compound `CC1CC(C)CN(C(=O)c2ccc([N+](=O)[O-])cc2)C1` (stereo not drawn) [NCR-2, 3,5-Dimethyl-1-(4-Nitrobenzoyl)piperidine] yielded a melting point of 120 to 125 °C.

`Cc1cc(C(=O)N2CCCC(C)C2)ccc1[N+](=O)[O-]` (stereo not drawn) [NCR-3, 3-Methyl-1-(3-Methyl-4-Nitrobenzoyl)piperidine] came in with a melting point of 82 to 82.8 °C.

Compound `CC1CCCN(C(=O)c2ccc([N+](=O)[O-])cc2)C1` (stereo not drawn) [NCR-4, 3-Methyl-1-(4-Nitrobenzoyl)piperidine] came in with a melting point of 70.2 to 71.3 °C.

With `CC1CC(C)CN(C(=O)c2ccccc2)C1` (stereo not drawn) [NCR-6, 1-(Benzoyl)-3,5-Dimethyl piperidine], the melting point lay within 107.2 to 108.7 °C.

In the case of `Cc1cc(C(=O)N2CCCCC2)ccc1[N+](=O)[O-]` [NCR-8, 1-(3-Methyl-4-Nitrobenzoyl)piperidine], the melting point lay in the range of 71.7 to 72.2 °C.

For the compound `CCN(CC)C(=O)c1ccc([N+](=O)[O-])c(C)c1` [NCR-9, N,N-Diethyl-3 Methyl-4-Nitrobenzamide], the melting point was 74.5 to 76 °C.

In turn, `CC1CC(C)CN(C(=O)c2ccc(Cl)cc2)C1` (stereo not drawn) [NCR-11, 3,5-Dimethyl-1-(4-Chlorobenzoyl)piperidine] had a melting point of 113.5 to 115.4 °C.

`Cc1cc(S(=O)(=O)N2CC(C)CC(C)C2)ccc1[N+](=O)[O-]` (stereo not drawn) [NCR-12, 3,5-Dimethyl-1-[(3-Methyl-4-Nitrophenyl)sulfonyl]piperidine] yielded a melting point of 132.7 to 138.5 °C.

For the compound `Cc1cc(C(=O)N(C(C)C)C(C)C)ccc1[N+](=O)[O-]` [NCR-15, N,N-Diisopropyl-3-Methyl-4-Nitrobenzamide], the melting point lay within 107.6 to 109.7 °C.

In turn, `Cc1cc(C(=O)N2C(C)CCCC2C)ccc1[N+](=O)[O-]` (stereo not drawn) [NCR-17, 2,6-Dimethyl-1-(3-Methyl-4-Nitrobenzoyl)piperidine] showed a melting point of 99.7 to 100.5 °C.

For `Cc1cc(C(=O)N(Cc2ccccc2)Cc2ccccc2)ccc1[N+](=O)[O-]` [NCR-18, N,N-Dibenzyl-3-Methyl-4-Nitrobenzamide], the melting point lay in the range of 105.8 to 108.7 °C.

Turning to `Cc1cc(C(=O)N2CCCC2)ccc1[N+](=O)[O-]` [NCR-19, 1-(3-Methyl-4-Nitrobenzoyl)pyrrolidine], the melting point lay in the range of 61.3 to 61.9 °C.

Consider `Cc1cc(C(=O)NC2CCCCC2)ccc1[N+](=O)[O-]` [NCR-22, N-Cyclohexyl-3-Methyl-4-Nitrobenzamide], for which the melting point lay in the range of 134.2 to 141 °C.

`CC(C)CCNC(=O)CCC(=O)NCc1ccc(F)cc1` [compound 106, N-[(4-fluorophenyl)methyl]-N′-(3-methylbutyl)butane-1,4-diamide]: the “effect on hypoesthesia (pain threshold in response to C-fiber stimulation), EPW test” value in data set [2] is given as “no effect on pain threshold”. Further, the “peripheral morphine analgesia after nerve injury, thermal paw withdrawal test” value in data set [3] is given as “morphine analgesia was hardly recognized”.

For `Cc1cc(C(=O)N2CC(C)CC(C)C2)ccc1[N+](=O)[O-]` (stereo not drawn) [compound 155, 3,5-dimethylpiperidyl 3-methyl-4-nitrophenyl ketone], the “Relative Growth (MTT activity, Ab 570 nm, day 0 average taken as 100)” value in data set [4] (setting [5]) was determined as 100.00 ± 5.08; in data set [4] (setting [6]), 123.16 ± 10.03; in data set [4] (Day 3, compound 100 μg/ml, 5% FBS DMEM), 105.07 ± 17.53.

For the compound `CC1CC(C)CN(CC(=O)c2ccc(OC(F)F)cc2)C1` (stereo not drawn) [compound A28, 1-[4-(difluoromethoxy)phenyl]-2-(3,5-dimethylpiperidyl)ethan-1-one], the results for the “Relative Growth (MTT activity, Ab 570 nm, day 0 average taken as 100)” value in data set [4] (setting [5]) and in data set [4] (setting [6]) were 100.00 ± 6.56 and 233.28 ± 1.69, respectively. In addition, in the data set on Nav 1.8, the “time needed for the effect on Nav 1.8 and MOP expression to appear” value fell in the range of 3 to 6 h. In addition, the “recovery of the lowering of expression of Nav 1.8 after nerve injury” value in the data set on Nav 1.8 (3, 6 and 12 hours after administration, n=3, tendency) was 10-15%. Further, the “recovery of the lowering of expression of MOP after nerve injury” value with MOP is on record as 10-15%.

As usually defined, the melting point is the temperature, or range, at which the solid turns liquid.
